Ends that are not written are not given here.

Experiment [1] deals with hemostatic plug formation. In words: In vivo rabbit superior mesenteric artery perfusion, bleeding time. Conditions: FIG. 11. As for the experimental part:
This Example illustrates an in vivo model of mesentric artery perfusion in a rabbit. The experimental model employed involved anesthesized white New Zealand rabbits, weighing about 2.0 kg, and fed standard diet. The right femoral artery was canulated for blood pressure measurement and blood sampling. A midline abdominal incision was made to exteriorize the small intestine, the mesentery was draped over a microscope table, and superfused continuously with saline at 37° C. […] Small arteries of 100-200 μm external diameter were cut one third across with a surgical blade at the junction of the mesentery with the intestine. The time in seconds was determined from incision until the bleeding was arrested by a spontaneously formed hemostatic plug. Infusions of selected agents tested for their effects on platelet activation were through the mesenteric cannula with a constant volume Harvard pump at a flow rate of 0.11 ml/min. Three animals were used for each dose unless otherwise indicated. Blood pressure, hematocrit, and platelet count were measured prior to and after bleeding time determinations.

For experiment [2], the system named is ADP-treated human platelets. The experiment in a line: Aggregation of ADP-treated human platelets washed free of fibrinogen, by conjugates (percent transmission). The class given is cell-based. The settings on record: FIG. 6 curves b and c. The text has this: FIG. 5 illustrates the effectiveness of the divalent conjugate on promoting this inhibition reaction. Human platelets were washed free of fibrinogen and other binding proteins and then treated with ADP. […] The lower curve on FIG. 5 is a control of the identical conjugate with a peptide bound to the human serum albumin that is […] to the receptor site.
This Example illustrates that a polyvalent conjugate can also be manufactured and used in an aggregation reaction. […] Multiple copies of a different peptide, residues 397-411 of the gamma chain of fibrinogen bound to a cysteine residue were conjugated to a human serum albumin backbone. Curve a on FIG. 6 illustrates the aggregation of ADP-treated human platelets by this polyvalent conjugate. […] Curves b and c on FIG. 6 are controls illustrating the effectiveness of the conjugate as an artificial fibrinogen. In Curve b, the "model molecule" was first mixed with Fab fragments of rabbit antibody which had been made against the terminal portion of the gamma chain of human fibrinogen. […] This is evident from the almost flat response shown as Curve b on FIG. 6.
The alternate control, inhibiting the artificial fibrinogen reaction using the peptides themselves, is shown in Curve c. In this reaction, the platelets were mixed with unconjugated peptides and then the conjugate was used in attempt to aggregate the platelets.

Experiment [3] deals with ADP-modified human platelet receptor site for fibrinogen. In words: Inhibition of 125I-fibrinogen binding to ADP-treated human platelets. The settings on record: 10^8 human platelets/0.55 ml treated with 5 mM of ADP, FIG. 8. As to the method:
FIG. 3 is a graph showing that the inhibitory effect of the same conjugate is concentration dependent. In this experiment, human platelets were treated with ADP and a variety of concentrations of the conjugate were added to affect inhibition of ^125 I-fibrinogen binding to the platelets. As the concentration of the conjugate increases, inhibition of binding goes from 0 to almost 100%, showing the effectiveness of the conjugate.

In experiment [4] the target is T1, ristocetin-modified human platelets (von Willebrand factor binding site) (Homo sapiens, UniProt P07359).
T1 construct: von Willebrand factor to human platelets treated with 0.6 mg/ml ristocetin; endogenous in cells; host or cells: human platelets treated with ristocetin
T1 sequence (P07359 17-652): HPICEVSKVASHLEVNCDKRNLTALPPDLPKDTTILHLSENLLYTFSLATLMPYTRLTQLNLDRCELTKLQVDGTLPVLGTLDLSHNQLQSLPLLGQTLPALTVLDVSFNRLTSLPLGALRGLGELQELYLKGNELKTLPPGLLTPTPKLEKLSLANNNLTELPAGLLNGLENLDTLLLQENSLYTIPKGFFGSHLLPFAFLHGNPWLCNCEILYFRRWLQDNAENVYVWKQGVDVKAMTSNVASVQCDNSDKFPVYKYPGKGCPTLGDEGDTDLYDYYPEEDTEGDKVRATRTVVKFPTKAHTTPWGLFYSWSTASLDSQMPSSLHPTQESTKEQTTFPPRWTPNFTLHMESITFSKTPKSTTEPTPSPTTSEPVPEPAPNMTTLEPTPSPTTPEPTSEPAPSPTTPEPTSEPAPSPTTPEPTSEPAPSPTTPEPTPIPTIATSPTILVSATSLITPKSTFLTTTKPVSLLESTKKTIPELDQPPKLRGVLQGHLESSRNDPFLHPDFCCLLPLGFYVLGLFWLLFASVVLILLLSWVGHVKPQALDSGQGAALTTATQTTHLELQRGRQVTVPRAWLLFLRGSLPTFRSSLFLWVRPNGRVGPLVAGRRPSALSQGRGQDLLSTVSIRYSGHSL
T1 sequence (P13224 26-206 partner): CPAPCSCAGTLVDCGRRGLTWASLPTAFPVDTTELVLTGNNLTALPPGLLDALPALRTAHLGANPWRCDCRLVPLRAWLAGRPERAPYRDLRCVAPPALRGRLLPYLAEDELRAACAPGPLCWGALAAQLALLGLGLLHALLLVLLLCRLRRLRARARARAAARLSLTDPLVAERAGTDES
T1 sequence (P14770 17-177 partner): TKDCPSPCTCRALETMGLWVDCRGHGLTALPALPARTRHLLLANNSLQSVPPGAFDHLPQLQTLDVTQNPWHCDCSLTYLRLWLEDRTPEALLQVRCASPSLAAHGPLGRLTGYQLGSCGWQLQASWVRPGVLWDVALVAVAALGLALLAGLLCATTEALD
T1 sequence (P40197 17-560 partner): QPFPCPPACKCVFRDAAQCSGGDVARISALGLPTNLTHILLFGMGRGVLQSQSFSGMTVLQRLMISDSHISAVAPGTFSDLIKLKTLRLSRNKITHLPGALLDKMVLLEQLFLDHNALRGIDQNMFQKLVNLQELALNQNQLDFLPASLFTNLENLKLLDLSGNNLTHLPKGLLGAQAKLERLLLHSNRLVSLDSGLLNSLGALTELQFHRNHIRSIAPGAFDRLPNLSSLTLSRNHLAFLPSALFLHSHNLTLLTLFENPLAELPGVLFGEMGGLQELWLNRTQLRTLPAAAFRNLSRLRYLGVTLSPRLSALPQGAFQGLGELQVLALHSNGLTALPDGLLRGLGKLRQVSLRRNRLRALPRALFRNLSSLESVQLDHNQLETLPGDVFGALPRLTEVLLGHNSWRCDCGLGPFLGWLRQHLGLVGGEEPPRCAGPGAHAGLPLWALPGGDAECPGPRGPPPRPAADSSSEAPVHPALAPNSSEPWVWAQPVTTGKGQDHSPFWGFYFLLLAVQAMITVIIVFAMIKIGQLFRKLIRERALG
In words: Inhibition of 125I-labelled von Willebrand factor binding to ristocetin-treated human platelets. The settings on record: human platelets treated with 0.6 mg/ml ristocetin, FIG. 8.

Experiment [5] addresses T2, ADP-modified human platelets (von Willebrand factor binding site) (Homo sapiens, UniProt P05106+P08514).
T2 construct: 10^8 human platelets/0.55 ml treated with 5 mM of ADP; endogenous in cells; host or cells: human platelets treated with ADP
In words: Inhibition of 125I-labelled von Willebrand factor binding to ADP-treated human platelets. The settings on record: 10^8 human platelets/0.55 ml treated with 5 mM of ADP, 14 μg 125I-von Willebrand factor, FIG. 8. As for the experimental part: This Example illustrates that a peptide can be used to inhibit binding of von Willebrand factor to ADP-treated human platelets. FIG. 8 illustrates the level of inhibition of ^125 I-labelled von Willebrand factor or fibrinogen binding to ADP-modified human platelets by incubation with a synthetic dodecapeptide

T2 sequence (P08514 32-887 limits assumed): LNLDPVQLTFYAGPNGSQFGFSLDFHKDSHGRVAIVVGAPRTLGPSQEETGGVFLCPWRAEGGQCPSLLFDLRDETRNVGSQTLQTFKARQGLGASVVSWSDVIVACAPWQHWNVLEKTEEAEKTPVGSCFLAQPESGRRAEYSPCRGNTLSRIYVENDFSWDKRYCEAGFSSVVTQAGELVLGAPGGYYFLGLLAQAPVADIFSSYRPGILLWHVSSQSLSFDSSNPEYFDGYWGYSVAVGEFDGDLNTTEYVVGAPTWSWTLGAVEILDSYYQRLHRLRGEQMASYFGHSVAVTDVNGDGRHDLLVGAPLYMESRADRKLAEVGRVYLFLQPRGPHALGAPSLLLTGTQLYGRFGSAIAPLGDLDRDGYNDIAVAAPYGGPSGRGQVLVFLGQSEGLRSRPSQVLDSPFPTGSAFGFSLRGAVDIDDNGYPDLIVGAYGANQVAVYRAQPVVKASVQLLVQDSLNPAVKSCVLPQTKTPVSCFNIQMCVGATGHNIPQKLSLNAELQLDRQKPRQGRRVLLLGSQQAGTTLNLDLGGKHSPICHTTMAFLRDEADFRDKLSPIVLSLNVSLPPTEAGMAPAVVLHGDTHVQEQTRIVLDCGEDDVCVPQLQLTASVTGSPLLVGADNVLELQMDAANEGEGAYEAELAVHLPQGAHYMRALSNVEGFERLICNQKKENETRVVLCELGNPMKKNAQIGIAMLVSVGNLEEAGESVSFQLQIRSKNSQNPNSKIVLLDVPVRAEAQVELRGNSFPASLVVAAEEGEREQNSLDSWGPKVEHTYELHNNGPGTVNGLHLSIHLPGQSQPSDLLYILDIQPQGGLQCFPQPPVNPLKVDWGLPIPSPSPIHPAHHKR
T2 sequence (P08514 891-1039 partner limits assumed): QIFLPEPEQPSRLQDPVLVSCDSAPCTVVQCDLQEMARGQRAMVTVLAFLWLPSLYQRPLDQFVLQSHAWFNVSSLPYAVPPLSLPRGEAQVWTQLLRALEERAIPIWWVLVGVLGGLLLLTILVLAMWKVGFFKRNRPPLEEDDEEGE
T2 sequence (P05106 27-788): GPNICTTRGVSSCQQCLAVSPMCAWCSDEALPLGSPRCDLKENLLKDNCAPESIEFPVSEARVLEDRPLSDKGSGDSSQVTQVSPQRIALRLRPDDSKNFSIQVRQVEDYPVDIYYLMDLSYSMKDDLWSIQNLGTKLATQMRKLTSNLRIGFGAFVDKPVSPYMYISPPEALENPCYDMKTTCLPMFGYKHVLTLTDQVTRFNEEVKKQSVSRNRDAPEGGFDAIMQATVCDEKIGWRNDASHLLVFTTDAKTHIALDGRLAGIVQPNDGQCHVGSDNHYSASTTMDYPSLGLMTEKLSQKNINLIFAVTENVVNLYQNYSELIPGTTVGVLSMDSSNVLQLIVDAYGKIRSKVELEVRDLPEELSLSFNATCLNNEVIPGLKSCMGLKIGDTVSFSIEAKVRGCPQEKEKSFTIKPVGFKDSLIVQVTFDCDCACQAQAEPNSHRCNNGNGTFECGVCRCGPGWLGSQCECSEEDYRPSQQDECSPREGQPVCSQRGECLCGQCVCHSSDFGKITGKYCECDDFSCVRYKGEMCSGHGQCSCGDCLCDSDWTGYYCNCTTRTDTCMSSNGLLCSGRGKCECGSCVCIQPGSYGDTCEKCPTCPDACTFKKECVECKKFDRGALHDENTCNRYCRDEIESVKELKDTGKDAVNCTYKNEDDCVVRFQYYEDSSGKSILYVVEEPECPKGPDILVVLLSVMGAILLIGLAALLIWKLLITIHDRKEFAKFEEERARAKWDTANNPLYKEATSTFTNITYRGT

Turning to HHLGGAKQAGDV [inhibitory peptide], the “bleeding time relative to its original time (diluent infusion)” value in experiment [1] (infusion through the mesenteric cannula) was “more than double its original time”. Further, in experiment [1] (said to show clearance of the peptide), the “time to resume original bleeding time after peptide infusion is replaced by diluent” value was “approximately 20 minutes”.
For the substance “unconjugated peptides: the peptides of the polyvalent conjugate themselves, unconjugated (gamma chain residues 397-411 with cysteine)”, the “inhibition of platelet aggregation induced by the polyvalent conjugate (artificial fibrinogen)” value in experiment [2] was “aggregation reaction by the artificial fibrinogen conjugate is inhibited”.
As to “HHLGGAKQAGDV [dodecapeptide, H2 N-His-His-Leu-Gly-Gly-Ala-Lys-Gln-Ala-Gly-Asp-Val-C OOH]”, the “inhibition of 125I-labelled fibrinogen binding” value in experiment [3] is “substantial binding inhibition”. In addition, the entries for the “inhibition of 125I-labelled von Willebrand factor binding” value in experiment [4] and in experiment [5] were “does not inhibit” and “substantial binding inhibition”, respectively.

The values above are taken from patent publication US4703039A, “Method of producing biologically active molecules having extended life time” (New England Deaconess Hospital Corporation, priority 1985, dated 1987).
